Data taken from patent US20040076974A1, “Liver necrosis predictive genes” (priority 2002, published 2004).
Where two headings read alike, the source gives them in different places.

What was measured:
Sprague Dawley rats = details: rat, in vivo; for Liver Necrosis / Score (histopathology liver necrosis severity score): ip
Method: Sprague Dawley rats Crl:CD from Charles River, Raleigh, N.C. were divided into treated rats that receive a specific concentration of the compound (see Table 1) and. control rats that only received the vehicle in which the compound is mixed (e.g., saline).
At specified timepoints (6 h, 24 h and 72 h) after administration (intraperitoneal route) of the compound, a set number of rats (usually 3 control and 3 treated) were euthanized and tissues collected. Each, rat was heavily sedated with an overdose of CO2 by inhalation and a maximum amount of blood drawn. Exsanguination of the rat by this drawing of blood kills the rat. The method of collecting the tissues is very important and ensures preserving the quality of the mRNA in the tissues. The body of the rat was then opened up and prosectors rapidly removed the tissues (including) and immediately placed them into liquid nitrogen. […] The organs/tissues were then packaged into well-labeled plastic freezer quality bags and stored at −80 degrees until needed for isolation of the mRNA from a portion of the organ/tissue sample.
Histopathology scores for each animal (assigned on a compound-dose basis as indicated in Table 1) were entered with gene expression data by using the GeneSpring™ ‘Drawn Gene’ function. Correlations between the histopathology scores and gene expression were conducted with the distance measures listed below:
Toxicity classifications were entered for training and test set as a parameter column. Toxicity, as defined by observation of necrosis in the at 72 hours after treatment, was entered as a “yes” or “no” for each animal in a compound-dose group. Additionally, a parameter column for random histopathology classification was designated. This was done by randomly assigning the same number of “yes” and “no” calls to the individual animals.

[1] = tested on: toxicologically relevant rat genes (rat CT array); details: rat, in vivo

## CN(C)[C@@H]1C(O)=C(C(N)=O)C(=O)[C@@]2(O)C(O)=C3C(=O)c4c(O)cccc4[C@@](C)(O)[C@H]3C[C@@H]12 [tetracycline]
Sprague Dawley rats
  toxicity at the high dose: produced toxicity
  toxicity at the low dose: not at the low dose
Sprague Dawley rats; 50 mg/kg
  Liver Necrosis: no
  Score (histopathology liver necrosis severity score): 1
Sprague Dawley rats; 150 mg/kg
  Liver Necrosis: Yes
  Score (histopathology liver necrosis severity score): 2
[1]
  14-3-3 zeta expression: 0.7335
  60S ribosomal protein L6 expression: 1.38
  Adenine nucleotide translocator 1 expression: 1.332
  Alpha-1 microglobulin/bikunin precursor (Ambp) expression: 1.73
  Alpha-2-macroglobulin, sequence 2 expression: 1.2
  Alpha-2-microglobulin expression: 0.5107
  Alpha-prothymosin expression: 1.454
  Alpha-tubulin expression: 0.9701
  Apolipoprotein AII expression: 0.2962
  Apolipoprotein C1 expression: 1.791
  Aquaporin-3 (AQP3) expression: 0.9307
  Beta-actin expression: 0.78
  Beta-actin, sequence 2 expression: 0.5941
  Beta-tubulin, class I expression: 0.7321
  Betaine homocysteine methyltransferase (BHMT) expression: 0.2575
  Biliverdin reductase expression: 0.7455
  CDK108 expression: 0.7153
  Calpactin I heavy chain expression: 1.165
  Calpain 2 expression: 1.216
  Cathepsin L, sequence 2 expression: 1.097
  Cathepsin S expression: 1.473
  Cholesterol esterase expression: 0.955
  Cofilin expression: 1.77
  Collagen type II expression: 1.355
  Cyclin D1 expression: 1.265
  Cystatin C expression: 1.57
  Cytochrome P450 2A3 expression: 0.8495
  Cytochrome P450 2C11 expression: 0.8002
  Cytochrome P450 2C23 expression: 1.592
  Dynamin-1 (D100) expression: 0.9613
  Elongation factor-1 alpha expression: 1.049
  Equilbrative nitrobenzylthioinosine-sensitive nucleoside transporter expression: 1.39
  F1-ATPase beta subunit expression: 1.072
  Fatty acid synthase expression: 0.837
  Gamma-actin, cytoplasmic expression: 1.057
  Glutathione S-transferase theta-1 expression: 1.085
  Glycine methyltransferase expression: 0.5811
  Heme oxygenase expression: 1.421
  High affinity IgE receptor gamma chain (FcERIgamma) expression: 1.193
  Hypoxanthine-guanine phosphoribosyltransferase expression: 0.7473
  IgE binding protein expression: 1.055
  Insulin-like growth factor I, exon 6 expression: 0.8256
  JNK1 stress activated protein kinase expression: 0.6582
  Melanoma-associated antigen ME491 expression: 1.77
  Multidrug resistant protein-1 expression: 1.041
  Multidrug resistant protein-2 expression: 0.8907
  N-hydroxy-2-acetylaminofluorene sulfotransferase (ST1C1) expression: 1.531
  NADP-dependent isocitrate dehydrogenase, cytosolic expression: 1.608
  NIPK expression: 0.7421
  Nucleoside diphosphate kinase beta isoform expression: 1.032
  Organic cation transporter 3 expression: 1.233
  Ornithine decarboxylase expression: 0.9438
  Osteoactivin expression: 1.112
  Paraoxonase 1 expression: 2.144
  Phase-1 RCT-24 expression: 0.8327
  Phase-1 RCT-36 expression: 0.8652
  Phase-1 RCT-43 expression: 1.003
  Phase-1 RCT-58 expression: 1.737
  Phase-1 RCT-109 expression: 0.5933
  Phase-1 RCT-117 expression: 0.8447
  Phase-1 RCT-146 expression: 0.9475
  Phase-1 RCT-149 expression: 0.6559
  Phase-1 RCT-173 expression: 0.5698
  Phase-1 RCT-179 expression: 1.528
  Phase-1 RCT-207 expression: 0.6995
  Phase-1 RCT-211 expression: 0.6151
  Phase-1 RCT-227 expression: 1.846
  Phase-1 RCT-290 expression: 0.417
  Poly(ADP-ribose) polymerase expression: 0.9896
  Presenilin-1 expression: 2.114
  Protein tyrosine phosphatase, receptor type, D expression: 1.295
  Pyruvate kinase, muscle expression: 0.6785
  Ribosomal protein L13A expression: 0.6452
  Ribosomal protein S9 expression: 1.161
  Ribosomal protein S17 expression: 1.358
  Stathmin expression: 0.7954
  Stearyl-CoA desaturase, liver expression: 0.1376
  Thioredoxin-1 (Trx1) expression: 0.7172
  Thymosin beta-10 expression: 0.6534
  Tissue plasminogen activator expression: 0.9708
  Transitional endoplasmic reticulum ATPase expression: 1.373
  Ubiquitin conjugating enzyme (RAD 6 homologue) expression: 1.177
  Uncoupling protein 2 expression: 0.7333
  Zinc finger protein expression: 1.116
  alpha-1,2-fucosyltransferase expression: 0.495
  p55CDC expression: 0.9757
  {Phase-1 RCT 98} expression: 1.16
  {Ribosomal protein 16} expression: 1.197
